Consider 11 molecules from PMC11239830, “Synthetic macrolides overcoming MLSBK-resistant pathogens” (Cell Discovery, 2024).

The subject of one data set is S. pneumoniae. Briefly: MIC, broth microdilution. It is filed as cell-based, Streptococcus pneumoniae. The method, boiled down:
(§1)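 Incubation ran for 16–20 h at 37 °C after setup per Clinical and Laboratory Standards Institute microdilution procedure. Growth was then observed to assign the MIC. Assays were replicated at least three times.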

A further data set concerns H. influenzae. Briefly: MIC, broth microdilution. It is filed as cell-based, Haemophilus influenzae. The note with it: Haemophilus influenzae, ATCC49247, H. influenzae ATCC49247, Azi-S; read-out: MIC. The method, boiled down:
as §1

The next data set deals with M. catarrhalis. The data set is described as follows: MIC, broth microdilution. The conditions noted are these: Moraxella catarrhalis; M. catarrhalis 13L332, Ery-S; read-out: MIC. The class given is cell-based, Moraxella catarrhalis. The method, then:
MICs were determined by the microdilution method according to the Clinical and Laboratory Standards Institute guidelines. Briefly, the stock solution of compounds and the reference antibiotics were diluted 2-fold in sterile 96-well plates with cation-adjusted Mueller-Hinton broth, and mixed with CAMHB-containing bacteria to give a final inoculum of 5 × 10^5 CFU/mL for broth microdilution experiments. […] Finally, the 96-well plates were incubated at 37 °C for 16–20 h to observe and record the results. The lowest concentration at which no bacterial growth could be observed visually was identified as the MICs of the compounds. The assay for MICs was replicated at least three times.
On the technique in general: Dilution methods test growth across graded concentrations, often in twofold steps.

In another data set the test system is S. pyogenes. Briefly: MIC, broth microdilution. It is filed as cell-based, Streptococcus pyogenes. An outline of the steps:
as §1

Data set [1] in a line: In vivo pharmacokinetic study. The arrangement: species or system SD rats. The conditions noted are these: SD (Sprague-Dawley), rat, iv, plasma. The method, then:
The SD rats were fasted overnight and dosed i.v. at a dose of 5 mg/kg in a solution of DMSO/PEG 400/water (5%/24%/71%). The whole blood was collected into tubes containing sodium heparin at 0.083 h, 0.25 h, 0.5 h, 1 h, 2 h, 4 h, 8 h and 24 h after dosing. After centrifugation of 6000 rpm for 10 min at 4 °C, plasma samples were transferred into 1.5 mL tubes and stored at –20 °C. Prior to analysis, the samples were thawed on ice. An amount of 50 μL of each plasma sample was added to a mixture of 50 μL of propranolol (300 ng/mL) and 100 μL of acetonitrile and centrifuged at 12,000 rpm at 4 °C for 10 min. The supernatant was diluted and analyzed by LC-MS/MS. The liquid chromatography was conducted on a Thermo Scientific Q Exactive HF-X (ThermoFisher Scientific, USA) instrument, employing an ACQUITY UPLC BEH C18 Column with dimensions of 130 Å, 1.7 µm, 2.1 mm × 100 mm. The liquid phase method employed gradient elution with mobile phases consisting of acetonitrile and an 0.1% aqueous formic acid solution. Mass spectrometry was conducted in positive ion mode. The quantification of drug concentration in plasma samples was performed using the internal standard method, and the obtained pharmacokinetic parameters were calculated using Phoenix WinNonlin software.

Another data set has as its system S. aureus. Briefly: MIC, broth microdilution. It is filed as cell-based, Staphylococcus aureus. An outline of the steps: as §1
The mark [2] stands for this setting: Streptococcus pneumoniae, ATCC49619, S. pneumoniae ATCC49619, Ery-S, read-out: MIC.
Where [3] appears, read: Streptococcus pneumoniae, S. pneumoniae 07P390, c-ermB, read-out: MIC.
The mark [4] stands for this setting: Streptococcus pyogenes, S. pyogenes 12-206, c-ermTR, read-out: MIC.
The mark [5] stands for this setting: Streptococcus pneumoniae, S. pneumoniae PU09, mef, read-out: MIC.

Structures are written as SMILES. In brackets after ≈: the same amount, converted by molar mass. Read-outs that look alike come from different tables or passages of the source. Bounds are passed on as bounds.

Consider `CCOC(=O)c1cn(C)c2cc(C#CCCCCCCNC(=O)O[C@H]3[C@H](C)[C@@H](O[C@@H]4O[C@H](C)C[C@H](N(C)C)[C@H]4O)[C@](C)(OC)C[C@@H](C)C(=O)[C@H](C)[C@H]4NC(=O)O[C@]4(C)[C@@H](CC)OC(=O)[C@@H]3C)ccc2c1=O` [88h], for which the MIC with S. pneumoniae (setting [2]) was at most 0.008 µg/mL; in the data set on S. pneumoniae (Streptococcus pneumoniae, S. pneumoniae 05O173, c-ermB, mef, read-out: MIC) it was 64 µg/mL (≈ 64.3 µM); with S. pneumoniae (setting [3]) it was 0.5 µg/mL (≈ 0.502 µM); in the data set with H. influenzae, 32 µg/mL (≈ 32.2 µM); in the data set with M. catarrhalis, 4 µg/mL (≈ 4.02 µM); with S. pyogenes (setting [4]) it was 2 µg/mL (≈ 2.01 µM). Besides, the highest level in data set [1] (male SD rats, i.v. 5 mg/kg) (Cmax) was 2650 ± 250 ng/mL. Further, in data set [1] (male SD rats, i.v. 5 mg/kg), the MRT amounted to 1.64 ± 0.665 h. In data set [1] (male SD rats, i.v. 5 mg/kg), the time of peak concentration (Tmax) was determined as 4.8 min. The same molecule gave a half-life in data set [1] (male SD rats, i.v. 5 mg/kg) of 2.63 ± 1.3 h. This molecule also showed an AUC(0-inf) in data set [1] (male SD rats, i.v. 5 mg/kg, mean ± SD, n 3) of 1790 ± 90 ng·h/mL. Also, the AUC(0-t) in data set [1] (male SD rats, i.v. 5 mg/kg, read-out: AUC0-24) came to 1760 ± 100 ng·h/mL. Moreover, the clearance in data set [1] (male, 5 mg/kg) was 46.5 mL/min/kg.
Turning to `CC[C@H]1OC(=O)[C@H](C)[C@@H](OC(=O)NCCCOCCC#Cc2ccc3c(=O)c(C(=O)O)cn(C4CC4)c3c2)[C@H](C)[C@@H](O[C@@H]2O[C@H](C)C[C@H](N(C)C)[C@H]2O)[C@](C)(OC)C[C@@H](C)C(=O)[C@H](C)[C@H]2NC(=O)O[C@@]21C` (hydrate or solvate) [95c], the melting point was 163.6 to 163.9 °C.
Turning to `CC[C@H]1OC(=O)[C@H](C)[C@@H](OC(=O)NCCCCCCC#Cc2ccc3c(=O)c(C(=O)O)c[nH]c3c2)[C@H](C)[C@@H](O[C@@H]2O[C@H](C)C[C@H](N(C)C)[C@H]2O)[C@](C)(OC)C[C@@H](C)C(=O)[C@H](C)[C@H]2NC(=O)O[C@@]21C` (hydrate or solvate) [88i], the melting point lay within 162.9 to 166 °C.
Turning to `CC[C@H]1OC(=O)[C@H](C)[C@@H](OC(=O)NCCCNCCC#Cc2ccc3c(=O)c(C(=O)O)cn(C4CC4)c3c2)[C@H](C)[C@@H](O[C@@H]2O[C@H](C)C[C@H](N(C)C)[C@H]2O)[C@](C)(OC)C[C@@H](C)C(=O)[C@H](C)[C@H]2NC(=O)O[C@@]21C` [98c], the melting point is 148.6 to 149.5 °C. Also, the MIC with S. pneumoniae (setting [2]) is 0.5 µg/mL (≈ 0.503 µM). Further, the MIC in the data set with S. pneumoniae (setting [3]) was 2 µg/mL (≈ 2.01 µM). Further, the MIC in the data set on S. pneumoniae (setting [5]) was 0.5 µg/mL (≈ 0.503 µM). Also, in the data set on H. influenzae, the MIC came to 64 µg/mL (≈ 64.4 µM). In addition, the MIC in the data set with S. pyogenes (setting [4]) amounted to 2 µg/mL (≈ 2.01 µM). Further, in the data set on S. aureus (Staphylococcus aureus, S. aureus 15B196, c-ermB, read-out: MIC), the MIC was 256 µg/mL (≈ 257 µM). Besides, the MIC in the data set with S. aureus (Staphylococcus aureus, S. aureus PU32, i-ermA, read-out: MIC) turned out to be 4 µg/mL (≈ 4.02 µM).
With `CCOC(=O)c1cn(C)c2cc(C#CCCCCCCNC(=O)O[C@H]3[C@H](C)[C@@H](O[C@@H]4O[C@H](C)C[C@H](N(C)C)[C@H]4O)[C@](C)(OC)C[C@@H](C)C(=O)[C@H](C)[C@H]4NC(=O)O[C@]4(C)[C@@H](CC)OC(=O)[C@@H]3C)ccc2c1=O` (hydrate or solvate) [88h], the melting point was in the range of 141.1 to 142 °C.
The molecule `CCC1OC(=O)C(C)C(OC(=O)NCCCOCCC#Cc2ccc3c(=O)c(C(=O)O)cn(C4CC4)c3c2)C(C)C(OC2OC(C)CC(N(C)C)C2O)C(C)(OC)CC(C)C(=NOC)C(C)C2OC(=O)OC12C` (stereo not drawn) (hydrate or solvate) [72c] had a melting point of 144.6 to 145.2 °C.
Molecule `CC[C@H]1OC(=O)[C@H](C)[C@@H](OC(=O)NCCCOCCC#Cc2ccc3c(=O)c(C(=O)O)cn(C)c3c2)[C@H](C)[C@@H](O[C@@H]2O[C@H](C)C[C@H](N(C)C)[C@H]2O)[C@](C)(OC)C[C@@H](C)C(=O)[C@H](C)[C@H]2NC(=O)O[C@@]21C` (hydrate or solvate) [MCX-190] gave a melting point of 157.9 to 158.8 °C.
`CC[C@H]1OC(=O)[C@H](C)[C@@H](OC(=O)NCCCCOCCC#Cc2ccc3c(=O)c(C(=O)O)cn(C)c3c2)[C@H](C)[C@@H](O[C@@H]2O[C@H](C)C[C@H](N(C)C)[C@H]2O)[C@](C)(OC)C[C@@H](C)C(=O)[C@H](C)[C@H]2NC(=O)O[C@@]21C` (hydrate or solvate) [96g]: the melting point fell in the range of 172.1 to 173.5 °C.
For `CC[C@H]1OC(=O)[C@H](C)[C@@H](O[C@H]2C[C@@](C)(OC)[C@@H](O)[C@H](C)O2)[C@H](C)[C@@H](O[C@@H]2O[C@H](C)C[C@H](N(C)C)[C@H]2O)[C@](C)(OC)C[C@@H](C)C(=O)[C@H](C)[C@@H](O)[C@]1(C)O` [clarithromycin, reference compound], the MIC is 512 µg/mL (≈ 685 µM) with S. pneumoniae (S. pneumoniae 07P390, c-ermB); above 64 µg/mL against S. pneumoniae (S. pneumoniae 21C315, Clinical, c-ermB); above 64 µg/mL with S. pneumoniae (S. pneumoniae 21D016, Clinical, c-ermB, mef); above 64 µg/mL in the data set on S. pneumoniae (S. pneumoniae 21D020, Clinical, c-ermB, mef); above 64 µg/mL in the data set on S. pneumoniae (S. pneumoniae 21M277, Clinical, c-ermB); 16 µg/mL (≈ 21.4 µM) in the data set on S. pneumoniae (S. pneumoniae 21Q352, Clinical, i-MLSB). For the same molecule, the MIC in the data set on S. pneumoniae (S. pneumoniae 21Q353, Clinical, i-MLSB) was 8 µg/mL (≈ 10.7 µM); with S. pneumoniae (S. pneumoniae 21W257, Clinical, c-ermB, mef), above 64 µg/mL; against S. pneumoniae (S. pneumoniae 21X435, Clinical), 0.12 µg/mL (≈ 0.16 µM); against S. pneumoniae (S. pneumoniae ATCC49619), 0.12 µg/mL (≈ 0.16 µM); in the data set with S. pneumoniae (setting [5]), 8 µg/mL (≈ 10.7 µM); in the data set on H. influenzae, 16 µg/mL (≈ 21.4 µM). For the same molecule, the MIC in the data set with M. catarrhalis was 0.25 µg/mL (≈ 0.334 µM); in the data set with S. pyogenes (S. pyogenes 12-206, c-ermTR), 512 µg/mL (≈ 685 µM); against S. pyogenes (S. pyogenes 21C303, Clinical, c-ermB), above 64 µg/mL; in the data set on S. pyogenes (S. pyogenes 21D184, Clinical, c-ermB) it was above 64 µg/mL; with S. pyogenes (S. pyogenes 21D199, Clinical, c-ermB) it was above 64 µg/mL; against S. pyogenes (S. pyogenes 21D200, Clinical, c-ermB), above 64 µg/mL. For the same molecule, the MIC is 2 µg/mL (≈ 2.67 µM) with S. pyogenes (S. pyogenes 21K003, Clinical, mef); above 64 µg/mL with S. pyogenes (S. pyogenes 21M063, Clinical, c-ermB); above 64 µg/mL against S. pyogenes (S. pyogenes 21W186, Clinical, c-ermTR); 4 µg/mL (≈ 5.35 µM) with S. pyogenes (Streptococcus pyogenes, S. pyogenes 01-968, i-ermTR (Table S5), read-out: MIC); 512 µg/mL (≈ 685 µM) in the data set on S. aureus (S. aureus 15B196, c-ermB); 0.25 µg/mL (≈ 0.334 µM) in the data set with S. aureus (S. aureus ATCC29213). The same molecule registered an MIC with S. aureus (S. aureus PU32, Clinical, MRSA, i-ermA) of 16 µg/mL (≈ 21.4 µM).
Turning to `CC[C@H]1OC(=O)[C@H](C)[C@@H](OC(=O)NCCCOCCC#Cc2ccc3c(=O)c(C(=O)O)c[nH]c3c2)[C@H](C)[C@@H](O[C@@H]2O[C@H](C)C[C@H](N(C)C)[C@H]2O)[C@](C)(OC)C[C@@H](C)C(=O)[C@H](C)[C@H]2NC(=O)O[C@@]21C` (hydrate or solvate) [95i], the melting point was 163.7 to 164.9 °C.
Take `CC[C@H]1OC(=O)[C@H](C)[C@@H](OC(=O)NCCCCCCC#Cc2ccc3c(=O)c(C(=O)O)cn(C)c3c2)[C@H](C)[C@@H](O[C@@H]2O[C@H](C)C[C@H](N(C)C)[C@H]2O)[C@](C)(OC)C[C@@H](C)C(=O)[C@H](C)[C@H]2NC(=O)O[C@@]21C` (hydrate or solvate) [MCX-219]: the melting point lay in the range of 179.5 to 180.3 °C.

Usually Cmax stands for the highest concentration seen after dosing. What is called MRT is a mean duration of stay, worked out from the concentration-time curve. In general, Tmax refers to the time at which the peak concentration occurs. One may read the half-life as the time in which the quantity being followed falls by half. A higher half-life goes with slow loss. Broadly, the AUC(0-inf) is the area under the concentration-time curve extrapolated to infinity. Read a low AUC(0-inf) as less exposure. What is called clearance is the rate of elimination divided by the concentration. Read a low clearance as inefficient removal. What is called melting point is the temperature, or range, at which the solid turns liquid.
